Data reported in US20220324912A1, “THERAPEUTIC PEPTIDES” (COHBAR, INC., priority 2019, published 2022).
Non-standard residues stand in square brackets, D forms with d. No end group written: not given here.

Legend:
[1] = tested on: 3T3-L1 adipocytes; assay: Free Fatty Acid Levels in 3T3-L1 Adipocytes (Example 4, 25 μM); type: cell-based, mouse; details: peptides 25 μM, 20-22 hours then 3 hours with isoproterenol 1 nM, 3T3-L1 adipocytes
Description: Following 12-15 days' differentiation, test peptides were added to a final concentration of 25 μM and incubated for 20-22 hours in Adipocyte Maintenance Medium. After 20-22 hours, isoproterenol (1 nM) was added to all wells except untreated controls and test peptides were replenished. Cells were incubated for a further 3 hours in Assay Buffer (Zen-Bio). Free fatty acid concentrations in the media were determined using a Free Fatty Acid Assay Kit (Zen-Bio) according to the manufacturer's instructions using a plate reader (540 nm). Absorbance values were corrected for untreated background and expressed relative to isoproterenol treated cells. Treatment with isoproterenol (1 nM) alone was used as the free fatty acid level stimulatory control. The relative standard deviation of the isoproterenol control was <10%. […] Free fatty acid levels for insulin (100 nM) treatment were <5% of the isoproterenol control value.

[2] = tested on: C2C12 cells; assay: Cellular ROS Levels Induced by TBHP in C2C12 Cells (DCFDA); type: cell-based, mouse; details: peptides 10 μM, 18-20 hours, then TBHP 100 μM 1 hour, relative to TBHP control
Description: The protective or synergistic effect of the peptides on cellular levels of reactive oxygen species (ROS) induced by oxidative stress can be assessed using an assay of ROS in cultured cells such as mouse myoblasts exposed to a suitable oxidative stress. Peptides were initially prepared as 10 mM stock in DMSO, diluted to 1 mM in H2O, and added at a final concentration of 10 μM (0.1% DMSO). […] TBHP was used at final concentration of 100 μM. Sulforaphane at final concentration of 10 µM was used as a protective control against TBHP induced ROS production. […] C2C12 cells were grown in DMEM supplemented with 20% FBS with 100 IU/ml penicillin and 100 μg/ml streptomycin. […] C2C12 cells were seeded at 7,500 cells per well on 96-well plates. […] After 18-20 hours of incubation the cells were loaded with DCFDA for 45 min. TBHP at 100 μM was then added to the appropriate wells for 1 hour. ROS activity was determined using a DCFDA Cellular ROS Detection Assay kit (Abcam, Cambridge, Mass.) according to the manufacturer's instructions. Fluorescence in each sample well on the plate was measured using a Cytation 3 plate reader at Ex/Em=485/535 nm (BioTek, Winooski, Vt.). Activity was calculated relative to TBHP control. The relative standard deviation of the sulforaphane control was <20%. The ROS level produced by the sulforaphane control in the presence of TBHP was 52% of the TBHP control.

[3] = tested on: C2C12 cells; assay: Cell Proliferation in C2C12 Cells (Cyquant DNA dye); type: cell-based, mouse; details: peptides 10 μM, 72 hours with readdition every 24 hours, relative to 0.1% DMSO control
Description: The effect of the peptides on cell proliferation was assessed using a DNA dye binding assay in cultured cells such as mouse myoblast cells. Peptides were initially prepared as 10 mM stock in DMSO, diluted to 1 mM in H2O, and added at a final concentration of 10 μM (0.1% DMSO). Lovastatin was used as a growth arrest control at final concentration of […]. […] C2C12 cells were grown in DMEM supplemented with 20% FBS with 100 IU/ml penicillin and 100 μg/ml streptomycin. […] C2C12 cells were seeded at 800 cells per well on 96-well plates. […] Cell proliferation was determined using Cyquant Direct Nucleic Acid Stain (Thermo Fisher Scientific, Waltham, Mass.) according to the manufacturer's instructions. Fluorescence for each sample well on the plate was measured using a Cytation 3 plate reader at Ex/Em=495/535 nm (BioTek, Winooski, Vt.). Activity was calculated relative to 0.1% DMSO untreated control. The relative standard deviation for the lovastatin control was <27%. The cell proliferation for the lovastatin control was <25% of the value for untreated control.

[4] = tested on: DIO mice; assay: Metabolic parameters in DIO mice, twice daily intraperitoneal, 10 days (Example 16); type: in vivo, mouse; details: 5 mg/kg, male DIO mice
Description: Male C57BL/6 mice were maintained on a high fat diet for 18 weeks to develop diet induced obesity. Animals were randomized to treatment groups based on blood glucose levels and body weight. The peptides of the invention were administered to groups of male DIO mice twice daily by intraperitoneal injection at a dose of 5 mg/kg/dose for 10 days (N=8 animals per treatment group). An additional group of male DIO mice (n=8) received vehicle (water) alone administered twice daily by intraperitoneal injection. Body weight, blood glucose levels and food intake were monitored. Body mass distribution (fat vs lean) was determined by quantitative whole body NMR prior to dosing and at the end of dosing.

[5] = tested on: 3T3-L1 mouse adipocytes; assay: Free Fatty Acid Levels in 3T3-L1 Mouse Adipocytes (Example 12, 10 μM); type: cell-based; details: peptides 10 μM, 20-22 hours then 3 hours with isoproterenol 1 nM, 3T3-L1 mouse adipocytes
Description: The effect of the peptides on fatty acid metabolism can be assessed using an assay of free fatty acid levels in cultured cells such as mouse adipocytes. Peptides were initially prepared as 10 mM stock in DMSO, diluted to 1 mM in H2O, and used at a final concentration of 10 μM (0.1% DMSO). […] After 20-22 hours, 1 nM isoproterenol was added to all wells except untreated controls and test peptides were replenished. Insulin at 100 nM was added to control wells. […] Free fatty acid concentrations in the media were determined using a Free Fatty Acid Assay kit (Zen-Bio) according to the manufacturer's instructions using a Cytation 3 plate reader at 540 nm (BioTek, Winooski, Vt.). Absorbance values were corrected for untreated background and expressed relative to isoproterenol treated cells. Treatment with isoproterenol (1 nM) alone was used as the free fatty acid level stimulatory control. The relative standard deviation of the isoproterenol control was <10%. […] Free fatty acid levels for insulin (100 nM) treatment were <5% of the isoproterenol control value.

| Substance | Free fatty acid levels, Percent of Control Value (percent isoproterenol control) [1] [%] | other results |
| --- | --- | --- |
| 3 (LAVRRTARAIG) [compound 3] | 91 |  |
| 4 (LAVRRTARAI) [compound 4] | 102 |  |
| 5 (LAVRRTARA[dA]) [compound 5] | 109 |  |
| 14 (MRLPGPAILTNPVLGWVWV) [compound 14] |  | Cellular ROS levels induced by TBHP, Percent of Control [2]: 106.0%; Cell proliferation, Percent of Control [3]: 93.2%; Difference from Vehicle Control: Decrease from Baseline in Blood Glucose [4]: -6.12 mg/dL; Difference from Vehicle Control: Decrease from Baseline in Body Weight [4]: −2.48%; Difference from Vehicle Control: Decrease from Baseline in Fat Mass [4]: -0.93 g; Free fatty acid levels, Percent of Isoproterenol Control Activity [5]: 80.8% |
| 21 (TFQKTHNLNQHNHPQPNY) [compound 21] | 91 |  |
| 22 ([dA]FQKTHNLNQHNHPQPNY) [compound 22] | 135 |  |
| 23 ([dA]FQKTHNLNQHNHPQ[dA]N) [compound 23] | 114 |  |
| 26 (VVKGPLSEGGHPWGREGI) [compound 26] | 129 |  |
| 27 (VVKGPLSEGGHPWGREG) [compound 27] | 89 |  |
| 28 (VKAPLSEGGHPWGREG) [compound 28] | 135 |  |
